From patent publication US5593970A, “Heterocyclic anthracycline analogs” (priority 1994, dated 1997)
Where “and” joins values, the source holds several entries; their conditions need not be identical. Equal values may be shown once. Where a name gives a salt, the structure may show the parent alone. Read-outs that look alike come from different tables or passages of the source.

Tests used:
Assay in all cases: Microculture tetrazolium assay
Assay type in all cases: cell-based
SKVLB = conditions: for VLB/OV3: IC50 ratio SKVLB/SKOV3; for IC50: SKVLB
SKOV3 = tested on: SKOV3
HT29 = tested on: HT29
LOX = tested on: LOX
T47D = tested on: T47D
[1] = Homo sapiens, SK-OV-3, SKOV3, read-out: IC50
[2] = Homo sapiens, HT-29, HT29, read-out: IC50

Compound	IC50 (SKVLB; read-out: IC50)	IC50 (SKOV3; [1]) [nM]	IC50 (HT29; [2]) [nM]	IC50 (LOX; read-out: IC50)	IC50 (T47D; Homo sapiens, read-out: IC50) [nM]	IC50 (SKOV3; SKOV3, read-out: IC50) [nM]	IC50 (HT29; HT29, read-out: IC50) [nM]	IC50 (T47D; read-out: IC50) [nM]	VLB/OV3 (SKVLB)	IC50 (HT29; Homo sapiens, HT-29, HT29) [nM]	IC50 (LOX) [nM]	IC50 (SKVLB) [nM]	IC50 (SKOV3; Homo sapiens, SK-OV-3, SKOV3) [nM]	IC50 (T47D; Homo sapiens) [nM]
C[C@@H]1O[C@@H](O[C@H]2O[C@H](C#N)CC3=C2C(=O)c2cc4ccccc4c(O)c2C3=O)C[C@H](NC(=O)C(F)(F)F)[C@@H]1O [BCH-2007, (1'S,1R,3S)-3-(6-hydroxy-1-(2',3',6'-trideoxy-3'-trifluoroacetamido-4'-hydroxy-L-lyxohexopyranose)-5,12-dioxo-3,4,5,12-tetrahydroanthraceno-[2,3-c]pyran-3-yl)nitrile]	2790 nM	433	148	379 nM	506	–	–	–	6.44	–	–	–	–	–
CC(=O)OCC1([C@@H]2CC3=C(C(=O)c4c(cc5ccccc5c4OC(C)=O)C3=O)[C@@H](O[C@H]3C[C@H](NC(=O)C(F)(F)F)[C@H](O)[C@H](C)O3)O2)OCCCO1 [BCH-1178]	12800 nM	6930	–	12300 nM	7060	–	–	–	1.85	5640	–	–	–	–
CC(=O)[C@H]1CC2=C(C(=O)c3cc4ccccc4c(O)c3C2=O)[C@H](O[C@@H]2O[C@@H](C)[C@@H](O)[C@@H](NC(=O)C(F)(F)F)C2I)O1 (some centres unmarked) [BCH-2064]	3450 nM	1450	440	10800 nM	878	–	–	–	2.38	–	–	–	–	–
CC1(C2CC3=C(CO2)C(=O)c2cc4ccccc4c(O)c2C3=O)OCCCO1 (centres unmarked) [BCH-1109]	100000 nM	62300	62600	76000 nM	47100	–	–	–	–	–	–	–	–	–
CCOC(=O)C1CC2=C(CO1)C(=O)c1c(c(OC(C)=O)c3ccccc3c1OC(C)=O)C2=O (centres unmarked) [BCH-655, Ethyl[6,11-diacetoxy-B,12-dioxo-3,4,5,12-tetrahydroanthraceno (2,3-c)pyran-3-yl]formate]	> 100000 nM	> 100000	> 100000	> 100000 nM	> 100000	–	–	–	–	–	–	–	–	–
CC(=O)[C@@H]1CC2=C(C(=O)c3cc4ccccc4c(O)c3C2=O)[C@@H](O[C@H]2C[C@H](NC(=O)C(F)(F)F)[C@H](O)[C@H](C)O2)O1 [BCH-730, (1S',1R,3S)-Methyl-(6-hydroxy-1-(3'-trifluoroacyldaunosamine)-5,12-dioxo-3,4,5,12-tetrahydroanthraceno[2,3-C]pyran-3-yl) ketone]	2010 nM and 2880 nM	3520	–	1660 nM	3620	–	–	3080	–	–	1780	–	–	–
CC[C@H]1CC2=C(C(=O)c3cc4ccccc4c(O)c3C2=O)[C@H](O[C@H]2C[C@H](N)[C@H](O)[C@H](C)O2)O1 [BCH-1610, (1'S,1S,3S)-5,12-dioxo-3-ethyl-6-hydroxy-1-(2',3',6'-trideoxy-3'-amino-4'-hydroxy-L-lyxohexopyranose)-3,4,5,12-tetrahydroanthraceno[2,3-c]pyran hydrochloride]	–	–	–	–	–	–	–	–	3.30	–	845	2770	839	1360

Second part, led by results:

IC50 (SKVLB; read-out: IC50)	IC50 (SKOV3; [1]) [nM]	IC50 (HT29; [2]) [nM]	IC50 (LOX; read-out: IC50)	IC50 (T47D; Homo sapiens, read-out: IC50) [nM]	IC50 (SKOV3; SKOV3, read-out: IC50) [nM]	IC50 (HT29; HT29, read-out: IC50) [nM]	IC50 (T47D; read-out: IC50) [nM]	Compound	VLB/OV3 (SKVLB)	IC50 (HT29; Homo sapiens, HT-29, HT29) [nM]	IC50 (LOX) [nM]	IC50 (SKVLB) [nM]	IC50 (SKOV3; Homo sapiens, SK-OV-3, SKOV3) [nM]	IC50 (T47D; Homo sapiens) [nM]
598 nM	171	83.2	170 nM	271	–	–	–	C[C@@H]1O[C@@H](OC2OC(C#N)Cc3c(O)c4c(c(O)c32)C(=O)c2ccccc2C4=O)C[C@H](N)[C@@H]1O (mixture of isomers) [BCH-2056, (1'S,1R,3S) and (1'S,1S,3R)(5,12-Dihydroxy-1-(2',3',6'-trideoxy-3'-amino-4'-hydroxy-L-lyxohexopyranose)-6,11-dioxo-3,4,5,12-tetrahydroanthraceno-[2,3-c]pyran-3-yl)nitrile]	3.50	–	–	–	–	–
73700 nM	23600	25400	1980 nM	28300	–	–	–	C[C@@H]1O[C@@H](O[C@@H]2O[C@@H](C(=O)CO)CC3=C2C(=O)c2cc4ccccc4c(O)c2C3=O)C[C@H](NC(=O)C(F)(F)F)[C@@H]1O [BCH-1182, (1 'S,1S,3R)-1,2,3,4,5,12-hexahydro-6-hydroxy-3-hydroxy-aceto-1-N-trifluoroacetyl-L-daunosamine-(2-oxo) naphthacene-5,12-dione]	3.12	–	–	–	–	–
398 nM	432	168	143 nM	314	–	–	–	CC(C)C(=O)C1Cc2c(O)c3c(c(O)c2C(O[C@H]2C[C@H](N)[C@H](O)[C@H](C)O2)O1)C(=O)c1ccccc1C3=O (mixture of isomers) [BCH-2120, (1'S, 1R,3S) and (1'S, 1S ,3R)-isopropyl-[5,12-dihydroxy-6,11-dioxo-1-(2',3',6'-trideoxy-3'-amino-L-lyxohexopyranose)-3,4,6,11-tetrahydroanthraceno-[2,3-c]-pyran-3-yl]-ketone hydrochloride]	0.92	–	–	–	–	–
28500 nM	12700	10700	9250 nM	13500	–	–	–	C[C@@H]1O[C@@H](O[C@H]2O[C@H](c3ccccc3)CC3=C2C(=O)c2cc4ccccc4c(O)c2C3=O)C[C@H](NC(=O)C(F)(F)F)[C@@H]1O [BCH-2010, (1S, 1R, 3S)-3-(6-hydroxy-1-(2',3',6'-trideoxy-3'-trifluoroacetamido-4'-hydroxy-L-lyxohexopyranose)-5,12-dioxo-3,4,5,12-tetrahydroanthraceno-[2,3-c]pyran-3-yl)benzene]	2.24	–	–	–	–	–
6960 nM	–	–	6070 nM	–	4300	2010	5510	CC(=O)OCC1(C2CC3=C(C(=O)c4c(cc5ccccc5c4OC(C)=O)C3=O)C(O)O2)OCCCO1 (centres unmarked) [BCH-733]	1.62	–	–	–	–	–
67.2 nM	70.6	304	38.4 nM	412	–	–	–	CC(C)[C@@H]1Cc2c(O)c3c(c(O)c2[C@@H](O[C@H]2C[C@H](N)[C@H](O)[C@H](C)O2)O1)C(=O)c1ccccc1C3=O [BCH-2050, (1'S,1R,3S)-5,12-Dixydroxy-3-isopropy-1-(2',3',6'-trideoxy-3'-amino 'L-lyxohexopyranose)-1,2,3,4-tetrahydro-(2-oxygen)-naphtacene-6,11-dione-hydrochloride]	0.95	–	–	–	–	–
3260 nM	1130	–	891 nM	1330	–	–	–	CC[C@@H]1CC2=C(C(=O)c3cc4ccccc4c(O)c3C2=O)[C@@H](O[C@H]2C[C@H](NC(=O)C(F)(F)F)[C@H](O)[C@H](C)O2)O1 [BCH-1606, (1'S,1R,3R)-5,12-dioxo-3-ethyl-6-hydroxy-1-(2',3',6'-trideoxy-3'-trifluoroacetamido-4'-hydroxy-L-lyxohexopyranose)-3,4,5,12-tetrahydroanthraceno[2,3-c]pyran]	2.88	–	–	–	–	–
1400 nM and 2200 nM	874	–	850 nM and 493 nM	1310	1200	–	1910	CC(=O)[C@@H]1CC2=C(C(=O)c3cc4ccccc4c(O)c3C2=O)[C@@H](O[C@H]2C[C@H](N)[C@H](O)[C@H](C)O2)O1 [BCH-1128]	1.60 and 1.83	–	–	–	–	–
3350 nM	672	–	741 nM	1410	–	–	–	CC(=O)[C@H]1Cc2c(O)c3c(c(O)c2[C@H](O[C@H]2C[C@H](N)[C@H](O)[C@H](C)O2)O1)C(=O)c1ccccc1C3=O [BCH-1195, (1'S,1S,3R)-Methyl-[5,12-dihydroxy-1-(2',3',6'-trideoxy-3'-amino-4'-hydroxy-L-lyxohexopyranose)-6,11,dioxo-3,4,6,11-tetrahydroanthraceno-(2,3-C)pyran-3-yl]ketone hydrochloride]	4.99	–	–	–	–	–
